From US20200399262A1, “COMPOUNDS FOR INHIBITING PROTEIN DEGRADATION AND METHODS OF USE THEREOF IN THE TREATMENT OF CANCER” (PI Therapeutics Ltd, priority 2018, published 2020) come the findings set out here.

In one data set the test system is HCT-116 xenograft. Briefly: HCT-116 colorectal flank xenograft in nude mice. The class given is in vivo. The settings on record: 8 mg/kg IV, TIW for 21 days. The text has this: (§1) FIG. 6A-6D show the evaluated in-vivo efficacy of Compound AA in a colorectal mouse flank xenograft models (HCT116, SW620). […] HCT-116 or SW620 cells (5×10^6 cells/mouse) were implanted in the rear flank of mail mice (6 weeks of age at the time of tumor implantation). On Day 20-23, mice were randomized for equivalent distribution of tumor volumes to treatment groups (n=5/group) and treated IV with vehicle, Compound AA (FIG. 6A, FIG. 6B) TIW for 21 days. Data are presented as mean tumor volume±SD. Body weight % changes in treated animals observed at end point (FIG. 6C, FIG. 6D). Animal xenograft models. MM1.S, HCT-116, SW620 cell lines were purchased from ATCC and used for xenograft model. The cells were cultured in RPMI medium (Sigma-Aldrich) supplemented with 10% fetal bovine serum (FBS) and divided for up to 5 passages. Shortly prior to injection, cell suspension was mixed with Matrigel at 1:[…]) and injected subcutaneously to the rear flank area of male nude athymic 6 weeks old mice to obtain administration of 5×10^6 cells/animal. On day 20-23, when tumor volume reached 100-150 mm^3, mice were randomized for equivalent distribution of tumor volumes to treatment groups (n=5/group) and treated via intravenous injection.

In a further data set the test system is SW620 xenograft. Kind of data set: SW620 colorectal flank xenograft in nude mice. Type of data set: in vivo. The settings on record: 8 mg/kg IV, TIW for 21 days.
Source text: as §1

In a further data set the test system is OVCAR-5. Briefly: NCI60 screen cytotoxicity. The settings on record: Homo sapiens, Ovarian cancer, read-out: Compound B1 EC50. The class given is cell-based.
The subject of the next data set is K-562. Kind of data set: NCI60 screen cytotoxicity. Type of data set: cell-based. The settings on record: Homo sapiens, K562, Leukemia, read-out: Compound B1 EC50.
Another data set has as its system NCI-H322M. Kind of data set: NCI60 screen cytotoxicity. Type of data set: cell-based. Particulars: Homo sapiens, Lung cancer, read-out: Compound B1 EC50.
In a further data set the test system is SW-620. Kind of data set: NCI60 screen cytotoxicity. The settings on record: Homo sapiens, Colon cancer, read-out: Compound B1 EC50. The class given is cell-based.
The test system of another data set is LOX IMVI. Kind of data set: NCI60 screen cytotoxicity. Particulars: Homo sapiens, Melanoma, read-out: Compound B1 EC50. The class given is cell-based.
The subject of a further data set is SNB-19. Briefly: NCI60 screen cytotoxicity. Type of data set: cell-based. The settings on record: Homo sapiens, CNS, read-out: Compound B1 EC50.
The subject of a further data set is EKVX. Kind of data set: NCI60 screen cytotoxicity. Type of data set: cell-based. Particulars: Homo sapiens, Lung cancer, read-out: Compound B1 EC50.
In another data set the test system is NCI-H522. Briefly: NCI60 screen cytotoxicity. Type of data set: cell-based. The settings on record: Homo sapiens, Lung cancer, read-out: Compound B1 EC50.
The next data set deals with HCC-2998. Briefly: NCI60 screen cytotoxicity. Particulars: Homo sapiens, Colon cancer, read-out: Compound B1 EC50. Type of data set: cell-based.
Another data set concerns HS-578T. Briefly: NCI60 screen cytotoxicity. Type of data set: cell-based. The settings on record: Homo sapiens, Breast cancer, read-out: Compound B1 EC50.
Another data set has as its system OVCAR-4. Briefly: NCI60 screen cytotoxicity. Type of data set: cell-based. Particulars: Homo sapiens, Ovarian cancer, read-out: Compound B1 EC50.
The next data set concerns BT-549. Briefly: NCI60 screen cytotoxicity. Type of data set: cell-based. Particulars: Homo sapiens, Breast cancer, read-out: Compound B1 EC50.
The test system of a further data set is SF-539. Kind of data set: NCI60 screen cytotoxicity. Type of data set: cell-based. The settings on record: Homo sapiens, CNS, read-out: Compound B1 EC50.
Data set [1] deals with UPR branches (PERK, ATF6 and IRE1alpha). Kind of data set: UPR activation in MM1.S cells (immunoblot, RT-PCR). The class given is cell-based. The settings on record: 200 nM. Here is the method:
MM1.S cells were treated with 200 nM of Compound B1 for the indicated time points. Following the stated incubation periods the cells were harvested, lysed and resolved on SDS-PAGE gel. Proteins were transferred to PVDF membrane and immunoblotted with the indicated antibodies: FIG. 7A: anti phospho JNK, FIG. 7B: anti JNK, FIG. 7C: anti ATF6. FIG. 7D: anti phospho eIF2alpha, FIG. 7E: anti eIF2alpha, FIG. 7F: anti ATF4. XBP1 splicing was performed on cDNA (FIG. 7G), RNA was extracted cDNA was generated by RT-PCR and XPB1 transcript was amplified by PCR with gene specific primers. Splicing was detected by differential migration of XBP1 transcript on agarose gel. Transcriptional changes of CHOP (FIG. 7K) and ATF4 (FIG. 7J) were estimated by quantitative PCR with gene specific primers. Relative gene expression levels were normalized to GAPDH. Cleaved form of ATF6 and spliced XBP1 is indicated with arrow.
Protein analysis by Western blot. At the end of treatment period, the cells were lysed with M-PER mammalian protein extraction reagent (ThermoFisher Scientific) supplemented with protease inhibitors. Equal protein amounts were resolved on pre-cast SDS-PAGE (ThermoFisher Scientific) and transferred to a PVDF membrane. The membrane was immunoblotted with antibodies as indicated. The following antibodies were used: Ub MAb (SC-8017, Santa-Cruz), ATF4, ATF6, phospho JNK, JNK (Cell signaling); eIF2alpha, phospho eIF2alpha (Novus).
RT-PCR: MM cells were treated with compounds as indicated. Total RNA was extracted using RNAeasy kit (QIAGEN) and cDNA was synthesized using reverse transcriptase (Quantaces biosciences). mRNA levels of ATF4 and CHOP were determined by quantitative PCR using a StepOnePlus™ Real Time PCR system (Life Technologies) with gene specific assays (Thermo Scientific). XBP splicing were addressed by differential migration of XBP-1 gene transcript full size versus spliced form on 2% Agarose gel.
Background: Immunoblotting shows a protein as a band on a membrane.

The subject of the next data set is NCI-H460. Briefly: NCI60 screen cytotoxicity. The class given is cell-based. The settings on record: Homo sapiens, Lung cancer, read-out: Compound B1 EC50.
The subject of the next data set is MCF-7. Kind of data set: NCI60 screen cytotoxicity. The class given is cell-based. The settings on record: Homo sapiens, MCF7, Breast cancer, read-out: Compound B1 EC50.
Another data set concerns SF-295. Briefly: NCI60 screen cytotoxicity. Type of data set: cell-based. The settings on record: Homo sapiens, CNS, read-out: Compound B1 EC50.
A further data set relates to HOP-62. Kind of data set: NCI60 screen cytotoxicity. The settings on record: Homo sapiens, Lung cancer, read-out: Compound B1 EC50. Type of data set: cell-based.
The test system of a further data set is IGR-OV1. Kind of data set: NCI60 screen cytotoxicity. The class given is cell-based. The settings on record: Homo sapiens, IGROV-1, Ovarian cancer, read-out: Compound B1 EC50.

pEC50: −log10 of the molar value.

As for `CN(C)CCCS(=O)(=O)N1C/C(=C\c2ccc(C#N)cc2)C(=O)/C(=C/c2ccc(C#N)cc2)C1` [Compound AA], the Animal body weight result in the data set on HCT-116 xenograft and in the data set on SW620 xenograft was “not considerably affected” in each case. Moreover, the “tumor growth compared to vehicle control” value in the data set on HCT-116 xenograft and with SW620 xenograft was “significantly inhibited tumor growth” in each case.

For `CN(C)CC(=O)NCC(=O)N1C/C(=C\c2ccc(C#N)cc2)C(=O)/C(=C/c2ccc(C#N)cc2)C1` [Compound B1], the pEC50 with OVCAR-5 was > 6.52; in the data set with K-562, > 6.52; in the data set on NCI-H322M, 6.00 to 6.52; in the data set with SW-620, > 6.52; in the data set on LOX IMVI it was > 6.52; with SNB-19, 6.00 to 6.52. Moreover, the pEC50 with EKVX was 6.00 to 6.52; with NCI-H522, > 6.52; in the data set on HCC-2998, > 6.52; with HS-578T, 6.00 to 6.52; in the data set on OVCAR-4, 6.00 to 6.52; in the data set with BT-549, > 6.52. In addition, the pEC50 is 6.00 to 6.52 in the data set on SF-539; > 6.52 in the data set on NCI-H460; 6.00 to 6.52 with MCF-7; > 6.52 in the data set with SF-295; > 6.52 in the data set with HOP-62; > 6.52 in the data set with IGR-OV1. Also, the “eIF2alpha phosphorylation (PERK activation)” value in data set [1] (after 1 hr of treatment) was “increases eI2Falpha phosphorylation”. For the same compound, the XBP splicing result in data set [1] (differential migration of XBP gene transcript) is listed as “Spliced XBP was detected”. Also, in data set [1] (immunoblot), the “ATF6 full size form” value is “short term upregulation of ATF6 full size form followed by a rapid decline”. Also, in [1] (immunoblot, no change in total protein levels), the “phosphorylated JNK” value is reported as “significant upregulation in phosphorylated JNK”. In [1] (peaking at 3 hr post treatment), the “ATF4 and CHOP transcription (quantitative PCR)” value was “transcriptional increase of both ATF4 and CHOP”.

As a reminder, the pEC50 is the negative decadic logarithm of the EC50, by convention in mol/L.
